We go through two molecules from patent US12312641B2, “Sensitivity marker for antibody-drug conjugate” (priority 2018, dated 2025).

Where two headings read alike, the source gives them in different places.

Assay [1] has as its system Human lung cancer cell line NCI-H1781. The assay is described as follows: Cell proliferation inhibition test upon SLFN11 knockdown, NCI-H1781. The format is cell-based. The conditions noted are these: for Cell proliferation inhibitory effect upon SLFN11 knockdown: NCI-H1781 cell lines, SLFN11 siRNA vs Non-targeting Control; for Fold change (SLFN11/Non-targeting Control): ratio of IC50. On the procedure: (§1) Human lung cancer cell line NCI-H1781 was obtained from ATCC and used for evaluation. NCI-H1781 cells suspended at 2×10^3 cells/mL in RPMI-1640 medium containing 10% bovine fetal serum were seeded in a 10 cm cell culture dish at 10 mL/dish. Twenty-four hours after seeding, 100 pmol of ON-TARGETplus SLFN11 siRNA (Dharmacon Inc.) or ON-TARGETplus Non-targeting Control Pool (Dharmacon Inc.) and 30 μL of Lipofectamine™ RNAiMAX Transfection Reagent (Thermo Fisher Scientific Inc.) were suspended in 1 mL of Opti-MEM medium, and the entire amount of the suspension was added to the medium. After 72 hours, the medium was removed and the dish was washed with PBS, then the cells were dissociated and recovered from the dish using 1 mL of TrypLE™ Express. The recovered cells were suspended at 5×10^4 cells/mL in RPMI-1640 medium containing 10% bovine fetal serum, and seeded in a 96-well cell culture plate at 100 μL/well. Twenty-four hours after seeding, the medium was replaced with a medium containing 100 nM, 33 nM, 11 nM, 3.7 nM, 1.2 nM, 0.41 nM, 0.13 nM, 0.045 nM, or 0 nM of compound (1) or antibody-drug conjugate (1) at 100 μL/well. The molar concentration of antibody-drug conjugate (1) was calculated by setting the average molecular weight to 150,000. Cells were all cultured at 37° C. under 5% CO2. After 72 hours from the medium replacement, ATPlite 1 step detection system (PerkinElmer Inc.) was added at 100 μL/well. The wells were incubated at room temperature for 10 minutes, then the luminescence intensity of each well was measured.
(§2) The cell growth inhibition rate (%) at each condition was calculated using the following calculation formula: Cell growth inhibition rate (%)=100×(1−T/C) • T: Average luminescence intensity of each well to which specimen was added • C: Average luminescence intensity of each well to which 0 nM specimen was added
(§3) The 50% inhibitory concentration at each condition was calculated by fitting to the following calculation formula: Cell viability (%)=(Emax−Emin)×Specimen concentration^γ/((Emax−50)/(50−Emin)×IC50^γ+Specimen concentration^γ)+Emin • Emax: maximum cell growth inhibition rate (%) • Emin: minimum cell growth inhibition rate (%) • IC50: 50% inhibitory concentration • γ: Hill coefficient
(§4) The fitting to the calculation formula was performed using SAS Systems Release 9.2 (SAS Institute Inc.).

The subject of assay [2] is Human breast cancer cell line MDA-MB-468. Put plainly: Cell proliferation inhibition test upon SLFN11 knockdown, MDA-MB-468. The format is cell-based. The procedure:
as §1, with “breast” for “lung”, “MDA-MB-468” for “NCI-H1781”, “[…]” for “pmol”
as §2, §3, §4

For the molecule `CC[C@@]1(O)C(=O)OCc2c1cc1n(c2=O)Cc2c-1nc1cc(F)c(C)c3c1c2[C@@H](NC(=O)CO)CC3` [Compound (1)], the IC50 came out at 3.3 nM in assay [1] (Homo sapiens, NCI-H1781, 72 h, read-out: IC50 (nM) Non-targeting Control Pool); 15 nM in assay [1] (Homo sapiens, NCI-H1781, 72 h, read-out: IC50 (nM) SLFN11 siRNA); 4.8 nM in assay [2] (Homo sapiens, MDA-MB-468, 72 h, read-out: IC50 (nM) Non-targeting Control Pool); 27.5 nM in assay [2] (Homo sapiens, MDA-MB-468, 72 h, read-out: IC50 (nM) SLFN11 siRNA). Also, the “Cell proliferation inhibitory effect upon SLFN11 knockdown” value in assay [1] is “attenuated by SLFN11 knockdown”; in assay [2] (MDA-MB-468 cell lines, SLFN11 siRNA vs Non-targeting Control), “attenuated by SLFN11 knockdown”. The “Fold change (SLFN11/Non-targeting Control)” value was determined as 4.5 in assay [1] (NCI-H1781 cells) and 5.7 in assay [2] (MDA-MB-468 cells, ratio of IC50).

B1: antibody-drug conjugate (1): humanized anti-hTROP2 antibody (SEQ ID NO: 1 residues 20-470, SEQ ID NO: 2 residues 21-234) conjugated to the exatecan-derivative drug-linker via a thioether bond (conjugate, chains of the INN, looked up)
VH: QVQLVQSGAEVKKPGASVKVSCKASGYTFTTAGMQWVRQAPGQGLEWMGWINTHSGVPKYAEDFKGRVTISADTSTSTAYLQLSSLKSEDTAVYYCARSGFGSSYWYFDVWGQGTLVTVSS
VL: DIQMTQSPSSLSASVGDRVTITCKASQDVSTAVAWYQQKPGKAPKLLIYSASYRYTGVPSRFSGSGSGTDFTLTISSLQPEDFAVYYCQQHYITPLTFGQGTKLEIK
modifications: exatecan-derivative drug-linker
Regarding B1, the “Cell proliferation inhibitory effect upon SLFN11 knockdown” value in assay [1] is on record as “attenuated by SLFN11 knockdown”. For the same molecule, the IC50 was 8 nM in assay [1] (NCI-H1781 cells, Non-targeting Control Pool, 72 hours, ATPlite, read-out: IC50 (nM) Non-targeting Control Pool); above 100 nM in assay [1] (NCI-H1781 cells, SLFN11 siRNA knockdown, 72 hours, ATPlite, read-out: IC50 (nM) SLFN11 siRNA); above 100 nM in assay [2] (MDA-MB-468 cells, Non-targeting Control Pool, 72 hours, ATPlite, read-out: IC50 (nM) Non-targeting Control Pool); above 100 nM in assay [2] (MDA-MB-468 cells, SLFN11 siRNA knockdown, 72 hours, ATPlite, read-out: IC50 (nM) SLFN11 siRNA). In addition, the “Fold change (SLFN11/Non-targeting Control)” value in assay [1] (NCI-H1781 cells) is on record as above 12.5.

The term IC50 denotes the concentration needed to halve the response being measured.
